Values quoted from earlier work in PMC5668067, “Phase I dose-escalation study of the c-Met tyrosine kinase inhibitor SAR125844 in Asian patients with advanced solid tumors, including patients with MET-amplified gastric cancer” (Oncotarget, 2017).

Tests used:
[1] = test system: gastric or gastroesophageal junction cancer; settings: cited from earlier work
[2] = test system: unselected gastric cancer patients; settings: cited from earlier work
[3] = test system: highly MET-amplified (MET:CEP7 >5) gastroesophageal cancers; set-up: method as in PMID 22042947; settings: cited from earlier work
[4] = test system: MET-amplified gastroesophageal junction, gastric, or esophageal tumors; set-up: method as in ref 16 = [16]; 16 Kwak EL LoRusso P Hamid O Janku F Kittaneh M Catenacci DV Chan E Bekaii-Saab TS Amore B Hwang YC Tang R Ngarmchamnanrith G Hong DS Clinical activity of AMG 337, an oral MET kinase inhibitor, in adu; settings: eight of 13 patients with MET-amplified tumors; cited from earlier work

Compound: rilotumumab: an anti-HGF antibody
- clinical benefit combined with chemotherapy ([1]; c-Met-positive gastric or gastroesophageal junction cancer): failed to show clinical benefit

Compound: COc1cc2c(Oc3ccc(NC(=O)C4(C(=O)Nc5ccc(F)cc5)CC4)cc3F)ccnc2cc1OCCCN1CCOCC1 [foretinib]
- objective responses [2]: no objective responses

Compound: O=C1NC(=O)[C@@H](c2cn3c4c(cccc24)CCC3)[C@@H]1c1c[nH]c2ccccc12 [tivantinib]
- objective responses [2]: no objective responses

Compound: C[C@@H](Oc1cc(-c2cnn(C3CCNCC3)c2)cnc1N)c1c(Cl)ccc(F)c1Cl [crizotinib]
- patients with tumor shrinkage [3]: two of four

Compound: onartuzumab: an anti-c-Met antibody
- survival benefit of addition to chemotherapy ([1]; regardless of c-Met expression): no survival advantage

Compound: COCCOc1cnc2ccn([C@H](C)c3nnc4c(F)cc(-c5cnn(C)c5)cn34)c(=O)c2c1 [AMG 337]
- partial or near complete response [4]: 62%
